The record followed here is ChEMBL document CHEMBL1201862, “PubChem BioAssay data set” (2004).

Molecules are shown by their SMILES. Activity calls are given as the source filed them.

The target in test [1] is T1, Voltage-gated N-type calcium channel alpha-1B subunit/Amyloid beta A4 precursor protein-binding family A member 1 (Homo sapiens, UniProt Q00975+Q02410). Format: protein assay.
Test [2] addresses T1, Voltage-gated N-type calcium channel alpha-1B subunit/Amyloid beta A4 precursor protein-binding family A member 1. Format: protein assay. The source holds these as a separate data set.
In test [3] the target is DNA (cytosine-5)-methyltransferase 1 (Homo sapiens, UniProt P26358). Put plainly: inhibition of DNA methylation by DNMT1 – biochemical, fluorescent molecular beacon, confirmation (AID 602386). Format: functional.
For test [4], the target named is Eukaryotic translation initiation factor 4H (Homo sapiens, UniProt Q15056). Put plainly: eIF4H binding inhibition – biochemical, uHTS, fluorescence polarization, translation initiation inhibitor project, primary screen (AID 2012).
In test [5] the target is Polyadenylate-binding protein 1 (Homo sapiens, UniProt P11940). Put plainly: blockers of PABP interaction with poly(A) – biochemical, fluorescence polarization, […] (AID 2014). On the technique in general: Polarisation of emitted light reports the rotation of a fluorescent probe.
Polyadenylate-binding protein 1, sequence (P11940 whole entry): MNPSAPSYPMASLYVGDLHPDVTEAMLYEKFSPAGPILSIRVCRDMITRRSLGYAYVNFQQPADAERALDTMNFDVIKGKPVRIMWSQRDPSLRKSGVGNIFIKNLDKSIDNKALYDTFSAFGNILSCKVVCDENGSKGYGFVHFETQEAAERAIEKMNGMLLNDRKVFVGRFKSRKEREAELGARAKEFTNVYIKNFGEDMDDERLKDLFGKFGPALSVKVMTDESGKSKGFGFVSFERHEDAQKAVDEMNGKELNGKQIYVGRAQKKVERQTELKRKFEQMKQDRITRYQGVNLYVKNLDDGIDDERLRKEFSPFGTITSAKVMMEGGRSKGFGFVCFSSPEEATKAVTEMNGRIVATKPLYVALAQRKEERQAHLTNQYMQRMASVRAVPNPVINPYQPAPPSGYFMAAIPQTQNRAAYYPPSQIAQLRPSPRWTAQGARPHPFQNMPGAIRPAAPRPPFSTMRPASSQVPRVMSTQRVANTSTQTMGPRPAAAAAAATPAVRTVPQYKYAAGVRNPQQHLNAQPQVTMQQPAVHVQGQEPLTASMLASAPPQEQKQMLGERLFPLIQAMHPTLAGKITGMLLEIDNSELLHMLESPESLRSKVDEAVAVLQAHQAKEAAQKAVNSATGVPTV
Test [6] in a line: A cytotoxicity screen of small molecule inhibitors of the PhoP region in Salmonella typhi identified in the primary screen. [Related pubchem assays: 1850, 1864, 1985 ]. Format: functional.
The nature of test [7]: A Cell Based Secondary Assay To Explore Cytotoxicity of Compounds that Sensitize Mycobacterium Tuberculosis to Beta-Lactam Antibiotics. Format: functional.
The target of test [8] is T2, Short transient receptor potential channel 4 (Mus musculus, UniProt Q9QUQ5).
T2 sequence (Q9QUQ5 whole entry): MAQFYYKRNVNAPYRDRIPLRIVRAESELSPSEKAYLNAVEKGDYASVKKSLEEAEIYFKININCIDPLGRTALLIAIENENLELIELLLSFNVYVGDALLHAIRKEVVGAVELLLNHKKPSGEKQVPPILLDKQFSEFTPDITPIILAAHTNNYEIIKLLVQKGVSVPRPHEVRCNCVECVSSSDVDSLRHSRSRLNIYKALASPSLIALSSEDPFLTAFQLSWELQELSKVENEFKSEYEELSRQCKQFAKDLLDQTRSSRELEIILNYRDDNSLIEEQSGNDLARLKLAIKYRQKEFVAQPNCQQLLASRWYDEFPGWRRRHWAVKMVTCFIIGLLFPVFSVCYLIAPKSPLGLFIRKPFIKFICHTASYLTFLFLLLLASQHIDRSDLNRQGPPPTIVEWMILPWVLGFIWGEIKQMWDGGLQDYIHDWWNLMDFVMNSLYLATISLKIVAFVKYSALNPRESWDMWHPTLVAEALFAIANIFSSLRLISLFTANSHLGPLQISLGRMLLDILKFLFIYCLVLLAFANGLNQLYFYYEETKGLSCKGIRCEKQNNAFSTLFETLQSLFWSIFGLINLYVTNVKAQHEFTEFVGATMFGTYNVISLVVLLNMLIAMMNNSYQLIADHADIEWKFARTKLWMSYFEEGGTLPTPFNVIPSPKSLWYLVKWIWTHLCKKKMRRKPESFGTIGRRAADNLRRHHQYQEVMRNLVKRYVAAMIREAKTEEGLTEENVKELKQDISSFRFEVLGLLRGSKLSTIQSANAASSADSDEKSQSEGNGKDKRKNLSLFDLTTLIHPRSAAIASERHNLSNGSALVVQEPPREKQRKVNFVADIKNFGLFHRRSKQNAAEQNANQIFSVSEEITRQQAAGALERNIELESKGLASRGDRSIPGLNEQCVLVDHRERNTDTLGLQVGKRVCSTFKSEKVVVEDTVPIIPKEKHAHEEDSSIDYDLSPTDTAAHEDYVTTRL
Put plainly: block of DAMGO-driven TRPC4 calcium entry – cell-based, HEK293 TRPC4/mu-opioid, Fluo-4 calcium, dose response (AID 434942).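 Further: potency of inhibitors blocking the TRPC4 calcium response.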 Format: functional.

In test [9] the target is DNA damage-inducible transcript 3 protein (Mus musculus, UniProt P35639). Format: functional, Cricetulus griseus.
DNA damage-inducible transcript 3 protein, sequence (P35639 whole entry, the tested form may be a part): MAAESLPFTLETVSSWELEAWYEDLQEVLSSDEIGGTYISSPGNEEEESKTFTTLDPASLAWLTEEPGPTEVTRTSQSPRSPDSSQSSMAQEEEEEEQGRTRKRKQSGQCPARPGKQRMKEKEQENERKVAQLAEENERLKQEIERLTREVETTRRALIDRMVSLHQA
Test [10] addresses T3, Carboxy-terminal domain RNA polymerase II polypeptide A small phosphatase 1 (Homo sapiens, UniProt Q9GZU7).
T3 sequence (Q9GZU7 whole entry): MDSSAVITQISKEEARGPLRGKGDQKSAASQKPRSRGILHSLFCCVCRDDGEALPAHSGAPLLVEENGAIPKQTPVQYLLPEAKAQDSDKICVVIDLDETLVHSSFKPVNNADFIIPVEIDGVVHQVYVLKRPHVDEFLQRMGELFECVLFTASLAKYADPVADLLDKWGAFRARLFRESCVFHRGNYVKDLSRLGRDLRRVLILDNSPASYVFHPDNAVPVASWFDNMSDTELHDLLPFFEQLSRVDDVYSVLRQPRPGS
Put plainly: CTDSP1 inhibitors, concentration-response, biochemical, absorbance readout, ultra-high-throughput screen actives (AID 540297). Format: functional.

The test system of test [11] is HEK293. Put plainly: cells. The settings on record: Homo sapiens. Format: functional, cell-based.
The subject of test [12] is HEK293. Put plainly: cells. Format: functional, cell-based. The settings on record: Homo sapiens. This is another data set of the same source.
Test [13] relates to HEK293. Put plainly: cells. Format: functional, cell-based. Conditions: Homo sapiens. This is another data set of the same source.
In test [14] the test system is HEK293. Put plainly: NOD2 signaling inhibitors in MDP-stimulated cells, cell-based, uHTS, luminescence (AID 2001). The settings on record: Homo sapiens. Format: functional.
Test [15] concerns HEK293. Put plainly: inhibition of NOD1-driven NF-kB reporter – cell-based, luminescence, uHTS, primary screen (AID 1578). The settings on record: Homo sapiens. Format: functional.
Test [16] addresses Nucleotide-binding oligomerization domain-containing protein 2 (Homo sapiens, UniProt Q9HC29). Put plainly: inhibition of NOD2-driven NF-kB reporter – cell-based, luminescence, uHTS, HEK293 (AID 1566). Format: functional.
Test [17] can be described thus: THP-1 cell cytotoxicity, dose response, cytotoxicity control for non-replicating M. tuberculosis project (AID 489025). Format: functional.
A further test addresses Large T antigen (Simian virus 40, UniProt P03070). Format: functional, Betapolyomavirus macacae.
Test [18] can be described thus: viability of PTEN-deleted HCT116 cells – cell-based, HCT116 PTEN knockout, dose response (AID 1047).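 Further: HCT116 colon tumor cells with PTEN knocked out; cells exposed to compound for 60 hours before readout; potency for loss of cell viability measured by luminescence.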 Format: functional.
A short description of test [19]: viability of HCT116 lacking mutant beta-catenin – cell-based, human colon tumor, dose response (AID 1045).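 Further: HCT116 colon tumor cells with beta catenin knocked out; cells exposed to compound for 60 hours.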 Format: functional.
A short description of another test: cells. Format: functional.
For test [20], the target named is Neurotensin receptor type 1 (Homo sapiens, UniProt P30989). Format: functional.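 Further: Image-based confirmatory dose-response assay measuring agonist activity at NTR1; NTR1-expressing U2OS osteosarcoma cells imaged for beta-arrestin GFP spot formation; agonist potency where compounds increase beta-arrestin recruitment.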
The target of test [21] is T4, Microphthalmia-associated transcription factor (Homo sapiens, UniProt O75030).
T4 sequence (O75030 whole entry): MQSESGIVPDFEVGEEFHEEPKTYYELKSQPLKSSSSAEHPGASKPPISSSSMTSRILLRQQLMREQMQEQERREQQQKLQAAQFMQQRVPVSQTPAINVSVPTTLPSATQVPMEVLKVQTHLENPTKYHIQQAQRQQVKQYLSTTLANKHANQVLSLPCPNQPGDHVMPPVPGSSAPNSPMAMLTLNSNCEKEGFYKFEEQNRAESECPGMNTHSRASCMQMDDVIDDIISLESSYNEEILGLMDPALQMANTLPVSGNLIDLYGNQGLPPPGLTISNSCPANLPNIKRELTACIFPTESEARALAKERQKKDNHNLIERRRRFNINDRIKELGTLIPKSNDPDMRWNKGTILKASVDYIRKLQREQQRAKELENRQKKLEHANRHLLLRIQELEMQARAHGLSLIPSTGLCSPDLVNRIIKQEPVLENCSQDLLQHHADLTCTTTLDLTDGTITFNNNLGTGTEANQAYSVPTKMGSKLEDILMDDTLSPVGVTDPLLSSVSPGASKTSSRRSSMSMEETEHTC
Put plainly: reducers of TRPM1 reporter luminescence, concentration series – cell-based, SK-MEL-5, cherry-picked, set 3, MITF inhibitor project, dose response (AID 493073).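 Further: SK-MEL-5 melanoma cells with luciferase driven by the MITF target TRPM1 promoter.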 Format: functional.

The target in the next test is T5, Protein skinhead-1 (Caenorhabditis elegans, UniProt P34707).
T5 sequence (P34707 whole entry): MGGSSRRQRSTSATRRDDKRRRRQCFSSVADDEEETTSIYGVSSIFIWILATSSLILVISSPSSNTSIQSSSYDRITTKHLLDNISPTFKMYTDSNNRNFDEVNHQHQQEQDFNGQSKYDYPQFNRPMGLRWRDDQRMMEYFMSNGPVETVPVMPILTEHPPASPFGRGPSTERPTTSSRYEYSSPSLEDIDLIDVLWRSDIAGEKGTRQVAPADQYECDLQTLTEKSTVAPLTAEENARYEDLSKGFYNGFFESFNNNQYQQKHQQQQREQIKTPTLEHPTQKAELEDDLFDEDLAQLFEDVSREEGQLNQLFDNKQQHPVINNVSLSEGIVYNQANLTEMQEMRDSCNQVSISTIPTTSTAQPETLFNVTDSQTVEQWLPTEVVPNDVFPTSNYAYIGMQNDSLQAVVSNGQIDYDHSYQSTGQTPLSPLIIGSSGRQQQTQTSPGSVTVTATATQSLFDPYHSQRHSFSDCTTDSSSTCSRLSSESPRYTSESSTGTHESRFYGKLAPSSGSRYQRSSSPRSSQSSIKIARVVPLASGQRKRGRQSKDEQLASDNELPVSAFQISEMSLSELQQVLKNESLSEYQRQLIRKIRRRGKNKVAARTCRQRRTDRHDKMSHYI
Format: functional.

T1 sequence (Q00975 whole entry): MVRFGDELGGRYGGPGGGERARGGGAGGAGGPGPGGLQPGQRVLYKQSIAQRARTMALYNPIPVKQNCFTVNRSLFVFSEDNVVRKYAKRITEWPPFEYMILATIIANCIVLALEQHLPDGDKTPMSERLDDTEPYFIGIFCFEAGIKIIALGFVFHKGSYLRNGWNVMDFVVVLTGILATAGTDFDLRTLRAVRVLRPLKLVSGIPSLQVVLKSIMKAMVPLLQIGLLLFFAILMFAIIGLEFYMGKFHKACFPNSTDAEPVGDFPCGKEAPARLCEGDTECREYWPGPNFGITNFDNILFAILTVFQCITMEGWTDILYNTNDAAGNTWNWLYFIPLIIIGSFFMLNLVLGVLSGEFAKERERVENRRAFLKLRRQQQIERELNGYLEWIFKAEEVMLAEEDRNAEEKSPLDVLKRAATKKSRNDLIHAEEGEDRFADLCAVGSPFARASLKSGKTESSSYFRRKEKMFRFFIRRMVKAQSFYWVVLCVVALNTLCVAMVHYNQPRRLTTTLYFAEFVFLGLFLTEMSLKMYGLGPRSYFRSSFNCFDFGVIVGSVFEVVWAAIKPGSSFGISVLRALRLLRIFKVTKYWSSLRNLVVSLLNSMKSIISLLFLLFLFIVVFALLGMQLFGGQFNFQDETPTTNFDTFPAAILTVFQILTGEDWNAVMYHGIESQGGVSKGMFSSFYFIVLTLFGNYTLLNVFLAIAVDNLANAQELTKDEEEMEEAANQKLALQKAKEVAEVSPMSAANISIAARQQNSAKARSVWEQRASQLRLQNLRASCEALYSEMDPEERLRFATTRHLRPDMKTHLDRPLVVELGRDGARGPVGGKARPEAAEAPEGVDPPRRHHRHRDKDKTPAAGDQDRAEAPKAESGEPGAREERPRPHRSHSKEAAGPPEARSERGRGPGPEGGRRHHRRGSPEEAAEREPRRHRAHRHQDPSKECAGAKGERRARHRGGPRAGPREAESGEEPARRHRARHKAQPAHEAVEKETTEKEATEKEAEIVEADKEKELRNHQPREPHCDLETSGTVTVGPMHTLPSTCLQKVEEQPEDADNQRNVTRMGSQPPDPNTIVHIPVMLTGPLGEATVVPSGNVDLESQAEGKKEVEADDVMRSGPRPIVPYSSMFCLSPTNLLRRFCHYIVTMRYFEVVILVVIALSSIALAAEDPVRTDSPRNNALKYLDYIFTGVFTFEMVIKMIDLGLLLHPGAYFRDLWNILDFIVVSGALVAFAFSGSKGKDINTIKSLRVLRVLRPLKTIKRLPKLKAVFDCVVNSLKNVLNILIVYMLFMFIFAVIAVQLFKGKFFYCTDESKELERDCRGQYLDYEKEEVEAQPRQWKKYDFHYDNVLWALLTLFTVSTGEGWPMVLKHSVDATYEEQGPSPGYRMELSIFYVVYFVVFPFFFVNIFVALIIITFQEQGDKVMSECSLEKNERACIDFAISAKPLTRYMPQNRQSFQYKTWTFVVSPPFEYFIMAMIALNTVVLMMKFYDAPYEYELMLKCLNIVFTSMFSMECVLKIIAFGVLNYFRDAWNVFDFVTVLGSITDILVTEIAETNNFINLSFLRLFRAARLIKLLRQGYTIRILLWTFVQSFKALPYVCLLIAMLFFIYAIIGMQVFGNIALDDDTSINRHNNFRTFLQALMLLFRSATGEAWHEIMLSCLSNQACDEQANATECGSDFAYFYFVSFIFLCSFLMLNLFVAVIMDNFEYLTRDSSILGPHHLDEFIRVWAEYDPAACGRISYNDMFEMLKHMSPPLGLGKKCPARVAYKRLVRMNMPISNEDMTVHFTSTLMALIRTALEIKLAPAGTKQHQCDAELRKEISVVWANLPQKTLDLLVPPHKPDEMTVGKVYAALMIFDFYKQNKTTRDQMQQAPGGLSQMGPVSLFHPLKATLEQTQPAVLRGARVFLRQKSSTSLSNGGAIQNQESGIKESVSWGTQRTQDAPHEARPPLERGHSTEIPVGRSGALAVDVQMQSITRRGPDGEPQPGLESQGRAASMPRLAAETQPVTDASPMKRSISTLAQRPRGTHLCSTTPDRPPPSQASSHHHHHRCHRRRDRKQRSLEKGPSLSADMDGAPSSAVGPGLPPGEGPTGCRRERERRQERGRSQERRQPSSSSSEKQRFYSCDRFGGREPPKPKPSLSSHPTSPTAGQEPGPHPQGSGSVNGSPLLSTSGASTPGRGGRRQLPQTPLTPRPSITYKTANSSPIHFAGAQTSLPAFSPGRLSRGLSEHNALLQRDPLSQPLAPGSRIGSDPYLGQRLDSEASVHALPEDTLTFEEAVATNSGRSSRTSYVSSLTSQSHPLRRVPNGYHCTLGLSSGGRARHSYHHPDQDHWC
T1 sequence (Q02410 whole entry): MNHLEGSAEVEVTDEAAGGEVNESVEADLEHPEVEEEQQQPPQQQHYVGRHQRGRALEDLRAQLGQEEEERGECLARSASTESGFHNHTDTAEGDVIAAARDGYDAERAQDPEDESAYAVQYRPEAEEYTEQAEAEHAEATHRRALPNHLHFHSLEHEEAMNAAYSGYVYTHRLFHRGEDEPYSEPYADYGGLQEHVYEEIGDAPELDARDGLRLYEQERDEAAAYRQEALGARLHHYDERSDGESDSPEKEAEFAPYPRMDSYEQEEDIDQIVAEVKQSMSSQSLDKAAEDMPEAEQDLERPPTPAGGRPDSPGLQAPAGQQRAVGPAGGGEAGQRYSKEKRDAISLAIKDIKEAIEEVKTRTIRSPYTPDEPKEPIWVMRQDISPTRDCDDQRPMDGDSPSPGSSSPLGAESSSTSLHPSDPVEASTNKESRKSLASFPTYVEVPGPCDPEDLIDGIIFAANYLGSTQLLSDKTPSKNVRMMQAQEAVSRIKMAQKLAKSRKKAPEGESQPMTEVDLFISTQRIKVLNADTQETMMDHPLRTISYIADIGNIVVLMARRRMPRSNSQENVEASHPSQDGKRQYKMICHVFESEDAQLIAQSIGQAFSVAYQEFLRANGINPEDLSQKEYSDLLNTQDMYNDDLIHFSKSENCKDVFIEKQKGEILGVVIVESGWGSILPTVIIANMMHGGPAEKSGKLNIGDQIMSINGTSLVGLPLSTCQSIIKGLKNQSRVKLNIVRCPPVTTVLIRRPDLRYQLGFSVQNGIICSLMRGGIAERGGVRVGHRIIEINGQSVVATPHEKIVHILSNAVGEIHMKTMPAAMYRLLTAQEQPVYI
Large T antigen, sequence (P03070 whole entry): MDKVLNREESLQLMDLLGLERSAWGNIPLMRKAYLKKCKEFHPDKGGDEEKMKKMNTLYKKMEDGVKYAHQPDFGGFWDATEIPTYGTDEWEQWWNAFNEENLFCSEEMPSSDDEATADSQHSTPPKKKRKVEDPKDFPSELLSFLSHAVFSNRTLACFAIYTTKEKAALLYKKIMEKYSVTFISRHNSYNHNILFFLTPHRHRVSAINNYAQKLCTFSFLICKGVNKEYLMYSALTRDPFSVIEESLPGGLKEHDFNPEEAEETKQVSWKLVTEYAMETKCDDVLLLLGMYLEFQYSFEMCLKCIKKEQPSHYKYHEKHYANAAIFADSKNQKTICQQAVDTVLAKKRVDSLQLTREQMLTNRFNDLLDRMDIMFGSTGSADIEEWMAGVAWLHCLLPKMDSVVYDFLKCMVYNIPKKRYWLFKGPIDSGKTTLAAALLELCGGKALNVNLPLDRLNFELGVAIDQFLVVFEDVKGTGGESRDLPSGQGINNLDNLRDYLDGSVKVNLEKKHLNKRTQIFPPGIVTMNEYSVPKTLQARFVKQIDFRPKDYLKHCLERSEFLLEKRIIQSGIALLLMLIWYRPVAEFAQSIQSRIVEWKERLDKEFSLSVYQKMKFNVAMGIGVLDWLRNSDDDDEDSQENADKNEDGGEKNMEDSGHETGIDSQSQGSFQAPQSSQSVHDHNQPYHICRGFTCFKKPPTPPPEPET

On to `O=C(CN1C(=O)S/C(=C\c2ccc(-c3cc(C(=O)O)ccc3Cl)o2)C1=O)Nc1ccc2c(c1)OCO2`, for which the IC50 in [1] was > 50 µM (inactive); in [2], > 56.8 µM (not active); in test [3], > 99 µM (inactive).

Turning to `CCN1C(NCCc2ccccn2)=N[C@@H](c2cccc(F)c2)C(C(=O)OC)=C1C`, the IC50 is > 100 µM (inactive) in [4] and 13.4 µM (active) in test [5].

`COC(=O)c1cc2oc(C)cc2n1CC(=O)Nc1ccc(C)c(C)c1`: the EC50 in [6] was > 50 µM (active).

In the case of `O=C(c1cccc(C(=O)N2CCN(c3ccc(F)cc3)CC2)c1)N1CCN(c2ccc(F)cc2)CC1`, the CC50 in test [7] is > 40 µM (active). Moreover, in [8], the concentration giving a half-maximal response (EC50) is 0.841 µM (active).

`CCc1ccc(OCCNC(=O)c2ccccc2SCc2ccccc2)cc1`: in test [9], the “Absolute IC50 (CHOP)” value was 10 µM.

Turning to `CCn1nc(NC(C)=O)c2cc3cccc(C)c3nc21`, the IC50 was > 100 µM (inactive) in test [4] and 7.59 µM (active) in [5].

As for `CN1CCc2nc(SCC(=O)Nc3ccc(Cl)cc3)c(C#N)cc2C1`, the EC50 in test [6] is > 50 µM (active).

For the molecule `COc1ccc(C2=NN(C(=O)c3ccco3)C(c3cc4ccccc4nc3Cl)C2)cc1` (configuration not stated), in [9], the “Absolute IC50 (CHOP)” value worked out at 10 µM.

On to `COc1ccc2c(c1)c(=O)oc1c(C)c(OCc3ccc(C(=O)O)cc3)ccc12`, for which the IC50 in test [10] was 2.01 µM (active); with HEK293 [11] it was > 20 µM (inactive); in the test on HEK293 [12], > 20 µM (inactive); with HEK293 [13] it was 14.4 µM (active); in the test on HEK293 [14], > 20 µM (inactive). In addition, the EC50 (in the test on HEK293 [15]; in test [16]) was > 20 µM (inactive) in each case.

As to `Cc1cccc(N2CCN(C(=O)Cn3sc4nc(C)cc(C)c4c3=O)CC2C)c1` (configuration not stated), the IC50 is > 50 µM (inactive) in test [1], 16.7 µM (active) in test [2], 18.1 µM (active) at Large T antigen and 23.8 µM (active) in the test “cells”. Besides, in [17], the CC50 is > 40 µM (active). Besides, the EC50 in [18] and in test [19] was 17 µM (active) each time.

Turning to `Cn1cc([N+](=O)[O-])c(C(=O)Nc2nc(-c3ccc(Cl)cc3)cs2)n1`, the EC50 was 3.8 µM (active) in test [20], 0.596 µM (active) in [18] and 0.523 µM (active) in [19]. In addition, the AC50 in test [21] was 10.5 µM (active).

As to `FC(F)(F)c1cc(-c2cccs2)nc(-n2cc(Br)cn2)n1`, in [9], the “Absolute IC50 (CHOP)” value stood at 10 µM. In addition, on Protein skinhead-1, the IC50 is > 100 µM (inactive).

As for `Cc1c(C(=O)N2CCN(Cc3ccccc3)CC2)sc2ncnc(N3CCOCC3)c12`, in test [6], the EC50 was > 50 µM (active).

Consider `O=C(NC(Cc1ccccc1)c1nc2ccccc2[nH]1)C1CC(=O)N(c2ccc3c(c2)OCCO3)C1` (configuration not stated), for which the results for the IC50 in [10], in [4] and in [5] were 41.4 µM (active), 56.2 µM (active) and 8.72 µM (active), respectively.

As usually defined, the IC50 is the concentration needed to halve the response being measured. One may read the EC50 as the concentration giving half of the maximal effect. In general, CC50 refers to the concentration that lowers cell viability or growth by half. The term AC50 denotes the midpoint of the concentration-response curve, whichever way the signal moves.
